Laboratory results: patent US7405211B2, “Therapeutic morpholino-substituted compounds” (AstraZeneca AB, priority 2000, dated 2008)

Assays:
Type in all cases: biochemical
PI3K γ = target: T1, PI3K γ (Homo sapiens, UniProt P48736); assay: In vitro enzyme assay PI3K γ (recombinant); conditions: recombinant γ isoform
T1 construct: made in house
Experimental: (§1) In vitro enzyme assays were conducted as a primary screen to determine drug candidate isoform affinity and specificity.
(§2) The α and β isoforms of the PI3K were immunoprecipitated from a platelet lysate using an antibody that recognised the p85 regulatory subunit common to both forms of the enzyme. The γ isoform was produced as a recombinant protein in the Thrombogenix laboratories. […] Standard phosphorylation assays using phosphatidylinositol and ^32P were used to measure the enzyme activity in the immunoprecipates in the presence or absence of an inhibitor. Enzyme activity was determined over a range of inhibitor concentrations to establish an IC50 value.

PI3K α/β isoforms = assay: In vitro enzyme assay PI3K α/β; conditions: immunoprecipitated from platelet lysate
Experimental: as §1, §2

[1] = test system: PI 3-kinase immunoprecipitated from human platelets; assay: In vitro PI 3-kinase assay (32P incorporation into PI); conditions: PI 3-kinase from human platelets, PI substrate
Experimental: The effect of TGX-25, TGX-33, TGX-37, TGX-40, TGX-41, TGX-57, TGX-84, TGX-90, TGX-93, TGX-98, TGX-99, TGX-101, TGX-106, TGX-107, TGX-108, TGX-109, TGX-111, TGX-112, TGX-113, TGX-115, TGX-120, TGX-121, TGX-123, TGX-124, TGX-126, TGX-127, TGX-130 or TGX-131on PI 3-kinase activity was determined using an in vitro PI 3-kinase assay. This assay was performed using PI 3-kinase immunoprecipitated from human platelets as the enzyme and PI as the substrate. The PI 3-kinase activity was quantitated by measuring the enzymatic incorporation of [^32P] into PI, forming PI([^32P]-3)P, as previously described (Susa et al., 1992, The Journal of Biological Chemistry 267(32):22951-22956.
Washed human platelets were lysed in Triton X-100 lysis buffer (10 mM Tris, pH 7.4, 1% Triton X-100, 2 mM EDTA, 1 mM PMSF) for 30 minutes. The Triton X-100 insoluble fraction was removed by centrifugation of the cell lysates at 15,000 g for 10 minutes. PI 3-kinase was immunoprecipitated by mixing 500 μg of the cell lysate with 1 μg of a rabbit anti-rat antibody against the p85/110 form of PI 3-kinase and 30 μl of 50% Protein A-sepharose beads for 2 hours at 4° C. The Protein A-sepharose-bound PI 3-kinase was isolated by pelleting the beads at 15,000 g for 5 seconds, and washing three times with ice-old Triton X-100 lysis buffer followed by four washes with PI 3-kinase assay buffer (20 mM HEPES, pH 7.4, 1 mM EGTA, 5 mM MgCl2).
PI stored in CHCl3 was dried under N2, resuspended in the lipid buffer (50 mM HEPES, pH 7.2, 1 mM EDTA) at a final concentration of 330 μg/ml, and sonicated for 6 minutes on ice. PI([^32P]-3)P was generated by mixing the immunoprecipitated PI 3-kinase for 20 minutes with 40 μl of the PI, 10 μl of ATP (1 mM) and ^32P-r-ATP (0.5 μCi, 1 μCi/nmol), 10 μl of 10× kinase buffer, in a final assay volume of 100 μl adjusted with H2O. TGX-25, TGX-33, TGX-37, TGX-40, TGX-41, TGX-57, TGX-84, TGX-90, TGX-93, TGX-98, TGX-99, TGX-101, TGX-106, TGX-107, TGX-108, TGX-109, TGX-111, TGX-112, TGX-113, TGX-115, TGX-120, TGX-121, TGX-123, TGX-124, TGX-126, TGX-127, TGX-130 or TGX-131 was preincubated with the PI 3-kinase for 5 minutes prior to the addition of ATP. The assay was terminated with 100 μl of 1 N HCl, and the PI([^32P]-3)P product extracted with 200 μl chloroform:methanol (1:1) and 500 μl 2 M KCl. The PI([^32P]-3)P in the chloroform phase was resolved by thin layer chromatography using a solvent system containing CHCl3:MeOH:HAC:H2O (43:38:5:7) (v:v:v:v), and visualized by autoradiography. The PI([^32P]-3)P spots were then scraped off from the TLC plates, deacylated with 1 ml methylamine:butanol:methanol (42:9:47) (v:v:v) for 4 hours at 53° C., and quantitated using a liquid scintillation counter (LKB 1209 RackBETA).

T1 sequence (P48736 whole entry, species assumed, canonical isoform): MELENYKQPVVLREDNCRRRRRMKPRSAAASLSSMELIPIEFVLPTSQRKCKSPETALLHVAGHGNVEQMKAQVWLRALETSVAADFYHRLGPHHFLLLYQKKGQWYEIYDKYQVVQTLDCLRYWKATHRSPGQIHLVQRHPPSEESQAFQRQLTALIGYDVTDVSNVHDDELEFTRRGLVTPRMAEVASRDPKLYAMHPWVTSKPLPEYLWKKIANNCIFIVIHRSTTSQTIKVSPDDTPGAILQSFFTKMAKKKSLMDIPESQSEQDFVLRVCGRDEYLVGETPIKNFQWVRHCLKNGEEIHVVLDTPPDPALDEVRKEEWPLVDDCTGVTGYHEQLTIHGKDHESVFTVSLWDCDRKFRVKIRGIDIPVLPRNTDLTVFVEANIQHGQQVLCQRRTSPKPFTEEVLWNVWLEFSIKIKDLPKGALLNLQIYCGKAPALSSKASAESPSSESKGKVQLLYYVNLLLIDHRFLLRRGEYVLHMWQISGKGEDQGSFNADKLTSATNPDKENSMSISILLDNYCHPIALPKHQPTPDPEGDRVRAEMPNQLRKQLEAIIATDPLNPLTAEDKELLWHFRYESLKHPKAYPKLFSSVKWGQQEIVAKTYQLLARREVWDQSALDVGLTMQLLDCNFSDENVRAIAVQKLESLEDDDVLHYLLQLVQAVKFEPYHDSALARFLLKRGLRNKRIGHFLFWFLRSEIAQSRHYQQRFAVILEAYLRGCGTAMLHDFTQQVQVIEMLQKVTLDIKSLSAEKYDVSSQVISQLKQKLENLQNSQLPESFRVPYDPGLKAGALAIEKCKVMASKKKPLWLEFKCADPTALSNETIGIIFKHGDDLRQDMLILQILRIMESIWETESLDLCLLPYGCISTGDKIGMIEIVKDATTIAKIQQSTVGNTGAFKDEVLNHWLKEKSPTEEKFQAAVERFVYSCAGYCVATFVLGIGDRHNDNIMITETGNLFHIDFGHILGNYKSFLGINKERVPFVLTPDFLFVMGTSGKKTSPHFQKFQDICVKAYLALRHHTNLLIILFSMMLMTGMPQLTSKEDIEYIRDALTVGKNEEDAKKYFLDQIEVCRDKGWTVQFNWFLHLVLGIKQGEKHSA

IC50 (PI3K γ)	IC50 (PI3K α/β isoforms)	IC50 [1]	Structure (SMILES)
–	–	0.2 µM	Cc1cc(Nc2ccc(F)cc2C)c2nc(N3CCOCC3)cc(=O)n2c1 [TGX-170]
2 µM	0.15 µM	0.15 µM	O=c1cc(N2CCOCC2)[nH]c2c(Oc3ccccc3F)cccc12 [TGX-143]
–	–	0.5 µM	Cc1cc(NCc2ccccn2)c2nc(N3CCOCC3)cc(=O)n2c1 [TGX-161]
–	0.05 µM	–	Cc1cc(CNc2ccccc2)c2nc(N3CCOCC3)cc(=O)n2c1 [TGX-183, 6-methyl-8-phenylaminomethyl-2-morpholinyl-4H-pyrido[1,2]pyrimidin-4-one]
–	–	10 µM	Cc1cc(Nc2ncccc2C)c2nc(N3CCOCC3)cc(=O)n2c1 [TGX-179]
–	–	1 µM	O=c1cc(N2CCOCC2)oc2c(-c3ccc(F)cc3)cccc12 [TGX-165, 2-morpholinyl-8-(4-fluorophenyl)-4H-1-benzopyran-4-one]
–	–	1 µM	Cc1ccc(S(=O)(=O)Oc2cccc3c(=O)cc(N4CCOCC4)[nH]c23)cc1 [TGX-138]
> 10 µM	0.05 µM	0.05 µM	O=c1cc(N2CCOCC2)[nH]c2c(Sc3ccccc3)cccc12 [TGX-111]
–	–	5 µM	Cc1c(Oc2ccccc2)ccc2c(=O)cc(N3CCOCC3)oc12 [TGX-157]
–	–	1 µM	Cc1cc(Nc2ccncc2)c2nc(N3CCOCC3)cc(=O)n2c1 [TGX-120]
–	–	10 µM	Cc1c(OCc2ccccc2)ccc2c(=O)cc(N3CCOCC3)oc12 [TGX-154]
–	–	5 µM	Cc1cc(Nc2ccccc2C(F)(F)F)c2nc(N3CCOCC3)cc(=O)n2c1 [TGX-147]
–	–	1 µM	Cc1cc(CCc2ccncc2)c2nc(N3CCOCC3)cc(=O)n2c1 [TGX-98]
5 µM	0.1 µM	0.1 µM	Cc1cc(Nc2ccc(O)cc2C)c2nc(N3CCOCC3)cc(=O)n2c1 [TGX-174]
–	–	0.5 µM	COC(=O)c1cccc(Oc2cccc3c(=O)cc(N4CCOCC4)[nH]c23)c1 [TGX-149]
–	–	20 µM	Cc1cc(C2CCN(C)C2=O)c2nc(N3CCOCC3)cc(=O)n2c1 (stereo not drawn) [TGX-153]
–	–	0.5 µM	Cc1cc(NCc2ccncc2)c2nc(N3CCOCC3)cc(=O)n2c1 [TGX-112]
–	–	5 µM	Cc1c(Oc2ccccc2)ccc2c(=O)cc(N3CCOCC3)oc12 [TGX-158]
–	–	2 µM	Cc1cc(-c2ccccc2C(F)(F)F)c2nc(N3CCOCC3)cc(=O)n2c1 [TGX-142]
–	–	25 µM	O=c1cc(N2CCOCC2)oc2c(O)cccc12 [TGX-125]
0.2 µM	0.1 µM	0.1 µM	O=c1cc(N2CCOCC2)oc2c(Oc3ccccc3)cccc12 [TGX-134, 2-(4-morpholinyl)-8-phenoxy-4H-1-benzopyran-4-one]
5 µM	0.05 µM	0.05 µM	Cc1ccccc1Oc1cccc2c(=O)cc(N3CCOCC3)[nH]c12 [TGX-115, 8-(2′-Methylphenoxy)-2-morpholino-4-quinoline]
–	–	2 µM	Cc1cc(Nc2ccccc2OCCN(C)C)c2nc(N3CCOCC3)cc(=O)n2c1 [TGX-162]
–	–	1 µM	Cc1cc(Cl)ccc1Oc1cccc2c(=O)cc(N3CCOCC3)[nH]c12 [TGX-180]

The next lines start with the compound.

Structure (SMILES)	IC50 (PI3K γ)	IC50 (PI3K α/β isoforms)	IC50 [1]
O=c1cc(N2CCOCC2)oc2c(Cc3ccccc3)cccc12 [TGX-90, 2-morpholinyl-8-(phenylmethyl)-4H-1-benzopyran-4-one]	3 µM	0.1 µM	0.1 µM
Cc1ccc(Oc2cccc3c(=O)cc(N4CCOCC4)[nH]c23)cc1 [TGX-113]	–	–	0.5 µM
O=c1cc(N2CCOCC2)oc2c(-c3ccccc3Cl)cccc12 [TGX-146, 2-morpholinyl-8-(2-chlorophenyl)-4H-1-benzopyran-4-one]	–	–	0.5 µM
Cc1cc(NCC2CCNCC2)c2nc(N3CCOCC3)cc(=O)n2c1 [TGX-139]	–	–	1 µM
O=c1cc(N2CCOCC2)oc2c(-c3ccccc3C(F)(F)F)cccc12 [TGX-135, 2-morpholinyl-8-(2-trifluoromethylphenyl)-4H-1benzopyran-4-one]	–	–	0.2 µM
Cc1ccccc1-c1cccc2c(=O)cc(N3CCOCC3)oc12 [TGX-145, 2-morpholinyl-8-(2-methylphenyl)-4H-1-benzopyran-4-one]	–	–	2 µM
Cc1cc(Nc2ccccc2O)c2nc(N3CCOCC3)cc(=O)n2c1 [TGX-130]	–	–	0.2 µM
O=C(O)c1cccc(Oc2cccc3c(=O)cc(N4CCOCC4)[nH]c23)c1 [TGX-151]	–	–	0.5 µM
O=c1cc(N2CCOCC2)[nH]c2c(Oc3ccc(F)cc3)cccc12 [TGX-121]	5 µM	0.05 µM	0.05 µM
Cc1ccc(Cc2cccc3c(=O)cc(N4CCOCC4)[nH]c23)cc1 [TGX-106]	–	–	2 µM
O=c1cc(N2CCOCC2)oc2cc(/C=C/c3ccccc3)ccc12 [TGX-118]	–	–	10 µM
O=c1cc(N2CCOCC2)oc2c(OCc3cccnc3)cccc12 [TGX-132]	–	–	1 µM
O=c1cc(N2CCOCC2)[nH]c2c(Cc3ccccc3)cccc12 [TGX-57, 8-Benzyl-2-morpholinoquinolone]	–	–	2 µM
Cc1cccn2c(=O)cc(N3CCOCC3)nc12 [TGX-25]	–	–	~11.1 µM
Cc1ccc(Oc2cc(C)cn3c(=O)cc(N4CCOCC4)nc23)cc1 [TGX-109]	–	–	1 µM
Cc1cc(N[C@@H](C)c2ccccc2)c2nc(N3CCOCC3)cc(=O)n2c1 [TGX-124]	–	–	1 µM

Structure (SMILES)	IC50 (PI3K γ)	IC50 (PI3K α/β isoforms)	IC50 [1]
COc1ccccc1CNc1cc(C)cn2c(=O)cc(N3CCOCC3)nc12 [TGX-137]	5 µM	0.05 µM	0.05 µM
Cc1cc(-c2ccccc2)c2nc(N3CCOCC3)cc(=O)n2c1 [TGX-41]	–	–	~9.8 µM
O=c1cc(N2CCOCC2)nc2c(-c3ccccc3)cccn12 [TGX-37]	–	–	~10.5 µM
O=c1cc(N2CCOCC2)nc2c(Oc3ccccc3)cccn12 [TGX-141, 2-Morpholinyl-8-phenoxy-4H-pyrido[1,2a]pyrimidin-4-one]	–	–	1 µM
Cc1cc(-c2ccsc2)c2nc(N3CCOCC3)cc(=O)n2c1 [TGX-93]	–	–	1 µM
Cc1cccc(Oc2cccc3c(=O)cc(N4CCOCC4)[nH]c23)c1 [TGX-127]	5 to 10 µM	0.05 µM	0.05 µM
Cc1cc(NCc2ccccc2)c2nc(N3CCOCC3)cc(=O)n2c1 [TGX-126]	> 10 µM	0.05 µM	0.05 µM
Cc1cc(Nc2ccc(O)cc2)c2nc(N3CCOCC3)cc(=O)n2c1 [TGX-101]	2 µM	0.1 µM	0.1 µM
Cc1cc(NCc2ccc(Cl)cc2)c2nc(N3CCOCC3)cc(=O)n2c1 [TGX-108]	–	–	1 µM
O=c1cc(N2CCOCC2)oc2cc(OCc3cccnc3)ccc12 [TGX-144]	–	–	2 µM
Cc1c(Oc2ccccc2)ccc2c(=O)cc(N3CCOCC3)oc12 [TGX-160]	–	–	2 µM
O=c1cc(N2CCOCC2)[nH]c2c(Cc3ccc(F)cc3)cccc12 [TGX-99]	–	–	1 µM
Cc1cc(Oc2cccc3c(=O)cc(N4CCOCC4)oc23)ccc1F [TGX-173, 8-(4-fluoro-3-methylphenyl)oxy-2-morpholinyl-4H-1-benzopyran-4-one]	–	0.15 µM	0.1 µM
Cc1c(Oc2ccccc2)ccc2c(=O)cc(N3CCOCC3)oc12 [TGX-159]	–	–	10 µM
Cc1cc(Nc2ccc(Cl)cc2)c2nc(N3CCOCC3)cc(=O)n2c1 [TGX-107]	–	–	1 µM
O=c1cc(N2CCOCC2)oc2c(OCc3ccccc3)cccc12 [TGX-102]	2 µM	0.1 µM	0.1 µM
